Source: patent publication US9624159B2, “Aniline derivatives, their preparation and their therapeutic application” (SANOFI, priority 2011, dated 2017)

Columns and labels:
[1] = molecular target: human prostanoid EP2 receptor (Homo sapiens (Human), UniProt P43116); experiment: Human prostanoid EP2 receptor cellular functional assay (cAMP, HTRF); type: cell-based; conditions: percent of control specific agonist response (10 μM PGE2)
Procedure: Test 1.2: Human Prostanoid EP2 Receptor Cellular Functional Assay
Human CHO cells expressing the recombinant human prostanoid EP2 receptor were suspended in assay medium (HBSS buffer (Invitrogen) containing 20 mM HEPES (pH7.4) and 500 μM isobutyl-methylxanthine IBMX) and plated out to yield approximately 1×10^4 cells/well in a 96-well. Following this, cells were incubated with agonists for 30 min in the presence of the test compounds. For stimulated control measurements, separate assay wells contain 10 μM PGE2 (control specific agonist). All incubations were carried out at 37° C. in a 5% CO2 atmosphere. Following incubation, the amount of cAMP in each well was determined by HTRF method. The cells are lysed and the fluorescence acceptor (D2-labeled cAMP) and fluorescence donor (anti-cAMP antibody labeled with europium cryptate) are added. After 60 min at room temperature, the fluorescence transfer is measured at λex=337 nm and λem=620 and 665 nm using a microplate reader (Rubystar, BMG).
The cAMP concentration is determined by dividing the signal measured at 665 nm by that measured at 620 nm (ratio).
The standard reference agonist PGE2 was tested at several concentrations to generate a concentration-response curve to determined EC50.
Analysis and Expression of Results […]

[2] = test system: laser-induced glaucomatous monkeys; experiment: Laser-induced hypertensive cynomolgus monkey, intraocular pressure; type: in vivo; conditions: 0.01% topically to glaucomatous eye once daily for 5 days
Procedure: Laser-Induced Hypertensive Cynomolgus Monkey
Ten adult female cynomolgus monkeys, each weighing 3-5 kg, in which glaucoma had been induced unilaterally by diode laser photocoagulation of the mid-trabecular meshwork, were used in this study.
Intraocular pressure (IOP) was measured at 0 hr (before drug administration) and then hourly until 6 hrs after drug administration on one baseline day, one vehicle-treatment day, and treatment days 1, 3, and 5 with 0.01% of compound II(d).
Compound II(d) was tested in two groups of 4 monkeys for a total of 8 monkeys. Following one baseline day (untreated) and one vehicle-treatment day (50 μl (25 μl×2), drop of vehicle to the glaucomatous eye at 9:30 (a 50 μl drop (25 μl×2) of compound (II(d)) were topically applied to the glaucomatous eye only once daily at 9:30 am for 5 consecutive days.
Slit-lamp examination for the detection of aqueous humor flare and cells was performed in a dark room before drug administration and at 1, 3 and 5 hrs after dosing on baseline day and at the same times on treatment days 1, 3 and 5.
Two-tailed paired and unpaired t test and the ANOVA test were used for statistical analysis.

human prostanoid EP2 receptor, sequence (P43116 whole entry): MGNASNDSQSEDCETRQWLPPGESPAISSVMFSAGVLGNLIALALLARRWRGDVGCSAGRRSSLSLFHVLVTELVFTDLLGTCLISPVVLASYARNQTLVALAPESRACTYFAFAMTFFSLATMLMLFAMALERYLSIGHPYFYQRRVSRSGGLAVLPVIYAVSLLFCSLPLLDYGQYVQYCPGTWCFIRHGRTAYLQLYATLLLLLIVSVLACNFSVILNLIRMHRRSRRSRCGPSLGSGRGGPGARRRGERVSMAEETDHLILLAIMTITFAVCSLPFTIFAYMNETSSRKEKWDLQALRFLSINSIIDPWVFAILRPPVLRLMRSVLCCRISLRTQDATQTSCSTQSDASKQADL

Row | Compound | In vitro functional assay % response [1] [%] | overall IOP reduction [2] [%]
1 | C[C@@H](Nc1c(F)ccc(OCC(=O)O)c1F)c1cc(-c2cccc(F)c2)ccc1F (single isomer, unassigned) [I(as) (+isomer)] | 124 | –
2 | CC(C)OC(=O)COc1ccc(F)c(NCc2cc(-c3cccc(F)c3)ccc2F)c1F [II(d), Isopropyl 2-[2,4-difluoro-3-[[2-fluoro-5-(3-fluorophenyl)phenyl]methylamino]phenoxy]acetate] | – | 22
